These are literature values, as cited in patent US5756508A, “Muscarine antagonists” (Merck & Co., Inc., priority 1996, dated 1998).

For data set [1], the system named is smooth muscle (ordinarily called m3 type). Particulars: background statement.
Data set [2] relates to axial elongation of the eye. Particulars: background statement.
The subject of data set [3] is muscarinic receptors (antimuscarinic). To be noted: background statement.
A further data set concerns pupil; ciliary muscle. Particulars: background statement.
For data set [4] the following is noted: background statement.

Each structure is given as a SMILES string.

As for `C[N+]1(C)CCC(OC(=O)C(c2ccccc2)c2ccccc2)CC1` [Example 4-DAMP, 4-diphenylacetoxy-N-methylpiperadine methiodide], the “selectivity for smooth muscle (m3 type) receptors” value in data set [1] is listed as “relatively selective antagonist for smooth muscle”.
Regarding `CN1CCc2cccc3c2[C@H]1Cc1ccc(O)c(O)c1-3` [apomorphine], the “inhibition of axial elongation / enlargement of the eye” value in data set [2] was “found to inhibit or actually prevent the axial enlargement of the eye”.
On to `CN1[C@@H]2CC[C@H]1C[C@@H](OC(=O)C(CO)c1ccccc1)C2` (stereo partly drawn) [atropine], for which the “antimuscarinic action / specificity” value in data set [3] is “long-acting non-specific antimuscarinic agent”. Further, in the data set on pupil; ciliary muscle, the “impairment of ocular focusing / near visual work” value is recorded as “impairs near visual work like reading” and the “pupil dilation (mydriasis)” value was “causes mydriasis (increase of pupil size)”. Besides, the sensitization entry in data set [4] is given as “test positive in sensitization assays”.
As for `CN1CCN(CC(=O)N2c3ccccc3C(=O)Nc3cccnc32)CC1` [pirenzepine], the “inhibition of axial elongation / enlargement of the eye” value in data set [2] is reported as “inhibits axial elongation”. For the same compound, the “pupil dilation (mydriasis)” value in the data set with pupil; ciliary muscle is on record as “far less effective at pupil dilation than atropine”. For the same compound, in data set [4], the sensitization entry is “test positive in sensitization assays”.
